Measured values from paper PMC7614683, “A small molecule PI3Kα activator for cardioprotection and neuroregeneration” (Nature, 2023).

Legend:
CDK8/cyclin C = CDK8/cyclin C (Homo sapiens, UniProt P49336); test: SelectScreen LanthaScreen Binding; settings: 1000 nM
In short: (§1)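 A single compound concentration of 1 μM was profiled in the vendor's Adapta, Lantha and Z-LYTE kinase assays. In gel-based follow-ups with 200 μM compound, phosphorylation was resolved on Phos-tag SDS-PAGE and quantified by Coomassie. The ATM run used 1 mM ATP with GST-p53 for 30 min, and the mTORC1 run used 250 μM ATP with 4E-BP1 for 3 h.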

[1] = molecular target: T1, MAP3K7/MAP3K7IP1 (TAK1-TAB1) (Homo sapiens, UniProt O43318); test: SelectScreen LanthaScreen Binding; settings: 1000 nM
T1 sequence (O43318 with tags, fused parts or gaps limits assumed): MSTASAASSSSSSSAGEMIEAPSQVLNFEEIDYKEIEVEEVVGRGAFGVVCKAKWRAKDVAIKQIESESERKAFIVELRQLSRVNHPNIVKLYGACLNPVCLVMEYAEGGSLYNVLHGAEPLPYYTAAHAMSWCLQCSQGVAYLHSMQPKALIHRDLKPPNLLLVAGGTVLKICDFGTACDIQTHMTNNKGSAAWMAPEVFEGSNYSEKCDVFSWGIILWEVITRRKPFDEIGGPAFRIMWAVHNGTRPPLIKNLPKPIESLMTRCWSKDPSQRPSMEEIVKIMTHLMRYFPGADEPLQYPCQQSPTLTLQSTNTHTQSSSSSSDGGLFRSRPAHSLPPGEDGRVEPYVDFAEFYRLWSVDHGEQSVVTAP
In short: as §1

AAK1 = AAK1 (Homo sapiens, UniProt Q2M2I8); test: SelectScreen LanthaScreen Binding; settings: 1000 nM
AAK1, sequence (Q2M2I8 whole entry): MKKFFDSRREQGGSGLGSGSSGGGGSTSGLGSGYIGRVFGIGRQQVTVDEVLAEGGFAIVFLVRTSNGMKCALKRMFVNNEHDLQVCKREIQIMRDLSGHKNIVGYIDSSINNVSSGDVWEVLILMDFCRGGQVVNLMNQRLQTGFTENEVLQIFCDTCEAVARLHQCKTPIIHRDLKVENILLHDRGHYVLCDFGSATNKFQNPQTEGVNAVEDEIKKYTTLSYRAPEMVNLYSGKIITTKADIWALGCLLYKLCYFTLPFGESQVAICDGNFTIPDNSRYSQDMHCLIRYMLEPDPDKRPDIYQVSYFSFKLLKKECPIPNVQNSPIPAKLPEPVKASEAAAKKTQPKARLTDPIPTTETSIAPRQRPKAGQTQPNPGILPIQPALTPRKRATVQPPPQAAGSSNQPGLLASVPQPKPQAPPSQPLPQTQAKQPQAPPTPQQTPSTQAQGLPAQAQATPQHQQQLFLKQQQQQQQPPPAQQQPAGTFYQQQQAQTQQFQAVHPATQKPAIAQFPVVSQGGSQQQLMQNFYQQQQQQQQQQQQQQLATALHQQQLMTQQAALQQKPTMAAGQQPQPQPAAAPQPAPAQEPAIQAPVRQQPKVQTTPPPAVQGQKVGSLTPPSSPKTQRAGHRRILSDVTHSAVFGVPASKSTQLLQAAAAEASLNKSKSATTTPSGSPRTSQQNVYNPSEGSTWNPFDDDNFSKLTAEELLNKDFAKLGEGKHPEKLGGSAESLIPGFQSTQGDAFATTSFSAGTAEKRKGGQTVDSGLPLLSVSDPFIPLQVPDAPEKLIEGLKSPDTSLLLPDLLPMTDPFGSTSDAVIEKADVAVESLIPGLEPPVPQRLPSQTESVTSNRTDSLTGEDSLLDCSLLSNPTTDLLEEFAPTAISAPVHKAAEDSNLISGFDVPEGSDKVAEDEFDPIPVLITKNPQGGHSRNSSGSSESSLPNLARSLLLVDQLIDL
In short: as §1

DYRK2 = molecular target: T2, DYRK2 (Homo sapiens, UniProt Q92630); test: SelectScreen LanthaScreen Binding; settings: 1000 nM
T2 sequence (Q92630 1-601): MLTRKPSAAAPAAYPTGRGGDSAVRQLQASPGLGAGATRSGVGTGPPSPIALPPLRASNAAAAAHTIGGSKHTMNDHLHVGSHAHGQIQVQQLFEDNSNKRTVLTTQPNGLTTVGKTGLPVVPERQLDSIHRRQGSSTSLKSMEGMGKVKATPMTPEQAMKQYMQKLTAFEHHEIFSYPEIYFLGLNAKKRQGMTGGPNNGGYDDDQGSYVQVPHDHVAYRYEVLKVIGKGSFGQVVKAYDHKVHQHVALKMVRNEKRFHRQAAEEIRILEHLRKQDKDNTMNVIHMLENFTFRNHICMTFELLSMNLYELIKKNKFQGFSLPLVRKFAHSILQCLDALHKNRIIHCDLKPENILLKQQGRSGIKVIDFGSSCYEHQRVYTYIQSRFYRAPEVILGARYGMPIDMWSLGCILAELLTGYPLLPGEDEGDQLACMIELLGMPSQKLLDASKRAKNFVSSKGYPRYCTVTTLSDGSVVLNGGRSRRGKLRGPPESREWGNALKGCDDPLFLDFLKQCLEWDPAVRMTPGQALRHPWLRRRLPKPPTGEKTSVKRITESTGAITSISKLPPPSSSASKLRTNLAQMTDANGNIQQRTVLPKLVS
In short: as §1

[2] = molecular target: T3, mTORC1 (mTOR/RAPTOR/LST8 complex) (Homo sapiens, UniProt P42345); test: mTORC1 in vitro kinase assay (Phos-tag gel); type: biochemical; settings: 200 μM 1938
T3 construct: made in house
Protocol: 133 protein kinases and 7 lipid kinases were counterscreened, with 1938 used at 1 μM, using the Adapta, Lantha and Z-LYTE assays (SelectScreen Kinase Profiling Service; Thermofisher – experimental details of these assays can be found here: https://www.thermofisher.com/uk/en/home/industrial/pharma-biopharma/drug-discovery-development/target-and-lead-identification-and-validation/kinasebiology/kinase-activity-assays.html. The tree represention in KinMap[59] generated courtesy of Cell Signaling Technology, Inc. (www.cellsignal.com). mTORC1 (mTOR/RAPTOR/LST8) protein complex and ATM kinase and substrates were produced as previously described[57],[60]. Screening of 1938 was conducted using SuperSep Phos-Tag 50 μmol/l 100 x 100 x 6.6 mm 17-well (192-18001/199-18011) gels. For ATM assays, 100 nM ATM was incubated for 30 min at 30°C with 5 μM GST-p53 and 1 mM ATP, in the absence or presence of 200 μM 1938 in ATM Kinase Buffer (50 mM HEPES pH 7.5, 100 mM NaCl, 10% glycerol, 2 mM […], 5 mM MgCl2). As a positive control for ATM activation, the same reaction was carried out with 100 nM ATM/5 μM GST-p53/1 mM ATP in the presence of 100 nM Mre11-Rad50-Nbs1 (MRN) complex, a known activator of ATM[61]. […] Gels were then stained using InstantBlue™ Coomassie, and quantified using BioRad Image Lab Software. […]

PI3Kα H1047R mutant = PI3Kα H1047R mutant (Homo sapiens, UniProt P42336, H1047R); test: ADP-Glo catalytic activity, oncogenic mutant H1047R; type: biochemical
PI3Kα H1047R mutant, sequence (P42336 whole entry H1047R): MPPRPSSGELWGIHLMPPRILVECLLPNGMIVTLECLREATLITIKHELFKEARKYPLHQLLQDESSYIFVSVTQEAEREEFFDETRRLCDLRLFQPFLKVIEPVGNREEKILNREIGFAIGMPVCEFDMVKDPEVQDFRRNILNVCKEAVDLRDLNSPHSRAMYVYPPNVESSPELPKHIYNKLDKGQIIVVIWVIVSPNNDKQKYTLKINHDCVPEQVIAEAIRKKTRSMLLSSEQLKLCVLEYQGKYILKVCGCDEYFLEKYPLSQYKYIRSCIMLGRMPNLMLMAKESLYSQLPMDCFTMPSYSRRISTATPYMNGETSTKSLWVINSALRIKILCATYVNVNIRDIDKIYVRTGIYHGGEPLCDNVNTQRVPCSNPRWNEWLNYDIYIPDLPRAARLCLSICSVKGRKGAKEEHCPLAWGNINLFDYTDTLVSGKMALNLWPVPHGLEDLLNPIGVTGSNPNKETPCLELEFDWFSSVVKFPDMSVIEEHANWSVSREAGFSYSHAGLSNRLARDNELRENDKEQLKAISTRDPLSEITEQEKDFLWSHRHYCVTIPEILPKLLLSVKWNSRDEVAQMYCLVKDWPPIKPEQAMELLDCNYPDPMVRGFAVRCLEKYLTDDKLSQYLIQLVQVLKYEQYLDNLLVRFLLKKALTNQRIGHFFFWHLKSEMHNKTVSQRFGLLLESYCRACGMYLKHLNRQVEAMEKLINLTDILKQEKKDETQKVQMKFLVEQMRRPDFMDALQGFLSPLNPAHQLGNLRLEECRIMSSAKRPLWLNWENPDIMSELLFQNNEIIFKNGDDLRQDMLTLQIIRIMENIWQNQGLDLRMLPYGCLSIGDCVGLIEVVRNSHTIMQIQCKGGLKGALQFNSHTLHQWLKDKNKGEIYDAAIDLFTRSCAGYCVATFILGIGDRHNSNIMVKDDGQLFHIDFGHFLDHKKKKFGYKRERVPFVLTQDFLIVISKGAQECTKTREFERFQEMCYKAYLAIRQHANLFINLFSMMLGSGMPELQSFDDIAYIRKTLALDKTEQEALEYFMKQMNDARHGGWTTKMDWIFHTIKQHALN
PI3Kα H1047R mutant, sequence (P27986 whole entry partner): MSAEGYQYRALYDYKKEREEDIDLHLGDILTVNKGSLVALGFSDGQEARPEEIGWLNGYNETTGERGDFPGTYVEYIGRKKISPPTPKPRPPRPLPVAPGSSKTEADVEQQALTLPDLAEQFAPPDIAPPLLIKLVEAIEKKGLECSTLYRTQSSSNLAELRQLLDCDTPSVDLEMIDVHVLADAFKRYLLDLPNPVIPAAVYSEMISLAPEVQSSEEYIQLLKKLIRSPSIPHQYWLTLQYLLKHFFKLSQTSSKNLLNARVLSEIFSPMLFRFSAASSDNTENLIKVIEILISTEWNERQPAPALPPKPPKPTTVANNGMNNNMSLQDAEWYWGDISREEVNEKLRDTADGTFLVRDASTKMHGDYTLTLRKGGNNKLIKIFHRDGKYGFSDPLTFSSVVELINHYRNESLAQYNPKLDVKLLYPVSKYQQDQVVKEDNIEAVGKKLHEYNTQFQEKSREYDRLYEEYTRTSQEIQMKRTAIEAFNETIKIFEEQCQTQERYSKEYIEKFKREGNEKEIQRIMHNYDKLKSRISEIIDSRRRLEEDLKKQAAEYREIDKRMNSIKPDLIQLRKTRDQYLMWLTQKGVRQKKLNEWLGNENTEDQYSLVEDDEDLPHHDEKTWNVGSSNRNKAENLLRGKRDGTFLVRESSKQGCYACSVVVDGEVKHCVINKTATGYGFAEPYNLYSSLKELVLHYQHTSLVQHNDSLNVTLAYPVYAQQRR
Protocol: For characterisation of the effects of 1938 on in vitro PI3K enzymology, all reactions were performed at room temperature with 384 white-polystyrene plates (Corning #3574). The final DMSO concentration in the assay was between 0.5%-1.8%. The reaction mixture contained 2 μl PI3K enzyme, 2 μl compound and/or pY and 2 μl of liposome substrate mixed with ATP. ATP was used at a final concentration of 200 μM, unless otherwise stated. The enzyme and compounds were pre-incubated for 10 min prior to addition of substrate. The reaction was allowed to proceed for up to 45 min at room temperature, before addition of 6 μl of ADP-Glo R1 to terminate the reaction. The plate was incubated for 60 min, followed by addition of 12 μl of ADP-Glo R2 and incubated further for 60 min in the dark. Data was expressed as velocity (nmol of ADP generated/nmol of enzyme/sec). ADP-ATP standard curves were performed according to the manufacturer’s instructions. Luminescence was read using a PHERAstar® plate reader with software version 5.41, and analyses were performed using GraphPad Prism 8/9.

CDK8/cyclin C, sequence (P49336 whole entry): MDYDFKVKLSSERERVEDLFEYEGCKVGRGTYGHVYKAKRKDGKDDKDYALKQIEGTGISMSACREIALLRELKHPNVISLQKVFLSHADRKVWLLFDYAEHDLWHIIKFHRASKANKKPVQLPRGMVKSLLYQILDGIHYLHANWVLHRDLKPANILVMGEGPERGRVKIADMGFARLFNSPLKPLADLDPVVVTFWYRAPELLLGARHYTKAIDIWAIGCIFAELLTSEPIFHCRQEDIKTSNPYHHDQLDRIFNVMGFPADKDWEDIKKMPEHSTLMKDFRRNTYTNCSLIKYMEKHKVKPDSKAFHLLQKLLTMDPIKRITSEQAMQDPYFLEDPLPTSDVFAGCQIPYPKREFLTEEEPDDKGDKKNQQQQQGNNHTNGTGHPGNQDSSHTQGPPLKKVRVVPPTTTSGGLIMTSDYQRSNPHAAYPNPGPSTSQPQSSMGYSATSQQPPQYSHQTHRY
CDK8/cyclin C, sequence (P24863 whole entry partner): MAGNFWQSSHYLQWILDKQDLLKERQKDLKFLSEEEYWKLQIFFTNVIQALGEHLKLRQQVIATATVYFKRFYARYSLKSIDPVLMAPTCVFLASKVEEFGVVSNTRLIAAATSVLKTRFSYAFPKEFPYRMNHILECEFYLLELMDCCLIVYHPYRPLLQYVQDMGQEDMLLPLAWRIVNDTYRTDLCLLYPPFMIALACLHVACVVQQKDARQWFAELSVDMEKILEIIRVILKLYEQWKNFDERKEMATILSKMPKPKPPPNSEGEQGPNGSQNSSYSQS

Question: For CCN1CCN(c2ccc(Nc3cc(Nc4cccc5c4N(C(C)=O)CC5)ccn3)cc2)CC1 [Compound 1938], which “% Displacement Point 1” value (CDK8/cyclin C) is on record?
Answer: -0.599%

Question: And the “% Displacement Point 2” value (CDK8/cyclin C)?
Answer: 0.85%

Question: And the “% Displacement mean” value (CDK8/cyclin C)?
Answer: 0.126%

Question: What about the “% Displacement Point 1” value [1] of the same compound?
Answer: 1%

Question: And the “% Displacement Point 2” value [1]?
Answer: -0.557%

Question: And the “% Displacement mean” value [1]?
Answer: 0.201%

Question: What about the “% Displacement Point 1” value (AAK1) of the same compound?
Answer: 26%

Question: What about the “% Displacement Point 2” value (AAK1) of the same compound?
Answer: 25%

Question: What about the “% Displacement mean” value (AAK1) of the same compound?
Answer: 25%

Question: And the “% Displacement Point 1” value (DYRK2)?
Answer: 23%

Question: And the “% Displacement Point 2” value (DYRK2)?
Answer: 1%

Question: And the “% Displacement mean” value (DYRK2)?
Answer: 12%

Question: What about the “effect on mTORC1 activity” value [2] of the same compound?
Answer: did not affect the activity

Question: What about the “activation of H1047R mutant” value (PI3Kα H1047R mutant) of the same compound?
Answer: levels comparable with stimulation with pY
